US20100234593A1, “Imidazo[4,5-B]Pyridine-7-Carboxamides 704” (ASTRAZENECA AB, priority 2007, published 2010)
Where a name gives a salt, the structure may show the parent alone.

Target: T1, recombinant human GSK3β (Homo sapiens, UniProt P49841)
T1 construct: purchased Dundee University, UK
Assay: GSK3β Scintillation Proximity Assay (ATP competition)
Format: biochemical
Details: SPA, 1 μM ATP, 1 μM biotinylated peptide substrate; Ki calculated with Km of ATP 20 μM
Protocol: Determination of ATP Competition in Scintillation Proximit), GSK3β Assay.
GSK3β Scintillation Proximity Assay.
The competition experiments were carried out in duplicate with 10 different concentrations of the inhibitors in clear-bottom microtiter plates (Wallac, Finland). A biotinylated peptide substrate, Biotin-Ala-Ala-Glu-Glu-Leu-Asp-Ser-Arg-Ala-Gly-Ser(PO3H2)-Pro-Gln-Leu (AstraZeneca, Lund), was added at a final concentration of 1 μM in an assay buffer containing 1 mU recombinant human GSK3β (Dundee University, UK), 12 mM morpholinepropanesulfonic acid (MOPS), pH 7.0, 0.3 mM EDTA, 0.01% β-mercaptorethanol, 0.004% Brij 35 (a […] detergent), 0.5% glycerol and 0.5 μg BSA/25 μl. The reaction was initiated by the addition of 0.04 μCi [γ-^33P]ATP (Amersham, UK) and unlabelled ATP at a final concentration of 1 μM and assay volume of 25 μl. After incubation for 20 minutes at room temperature, each reaction was terminated by the addition of 25 μl stop solution containing 5 mM EDTA, 50 μM ATP, 0.1% Triton X-100 and 0.25 mg streptavidin coated Scintillation Proximity Assay (SPA) beads (Amersham, UK). After 6 hours the radioactivity was determined in a liquid scintillation counter (1450 MicroBeta Trilux, Wallac). The inhibition curves were analysed by non-linear regression using GraphPad Prism, USA. The Km value of ATP for GSK3β, used to calculate the inhibition constants (Ki) of the various compounds, was 20 μM.

T1 sequence (P49841 whole entry): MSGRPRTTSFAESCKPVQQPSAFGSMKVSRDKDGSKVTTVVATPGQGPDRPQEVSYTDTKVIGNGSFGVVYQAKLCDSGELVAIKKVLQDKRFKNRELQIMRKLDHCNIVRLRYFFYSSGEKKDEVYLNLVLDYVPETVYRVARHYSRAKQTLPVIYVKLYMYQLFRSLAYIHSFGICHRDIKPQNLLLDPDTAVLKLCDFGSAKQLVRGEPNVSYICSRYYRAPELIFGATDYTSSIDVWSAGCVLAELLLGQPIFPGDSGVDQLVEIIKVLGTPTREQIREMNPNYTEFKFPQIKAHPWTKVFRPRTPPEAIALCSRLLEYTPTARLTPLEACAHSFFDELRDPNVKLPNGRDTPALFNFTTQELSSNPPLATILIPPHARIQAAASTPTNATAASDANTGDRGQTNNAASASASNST

| SMILES | Ki [nM] |
| --- | --- |
| COCCCNC(=O)c1c(Br)cnc2[nH]c(-c3ccc(CN4CCOCC4)cc3)nc12 [Example 13, 6-Bromo-S-(3-methoxypropyl)-2-[4-(morpholin-4-ylmethyl)phenyl]-3H-imidazo[4,5-b]pyridine-7-carboxamide] | 390 |
| COCCCNC(=O)c1c(Cl)cnc2[nH]c(-c3ccc(CN4CCOCC4)cc3)nc12 [Example 14, 6-Chloro-N-(3-methoxypropyl)-2-[4-(morpholin-4-ylmethyl)phenyl]-3H-imidazo[4,5-b]pyridine-7-carboxamide] | 1400 |
| COCCCNC(=O)c1c(F)cnc2[nH]c(-c3ccc(CN4CCOCC4)cc3)nc12 [Example 21, 6-Fluoro-N-(3-methoxypropyl)-2-[4-(morpholin-4-ylmethyl)phenyl]-3H-imidazo[4,5-b]pyridine-7-carboxamide hydrochloride] | 779 |
